Laboratory results from patent US20110269790A1, “NOVEL THIENOPYRIDINES AS PHARMACOLOGICALLY ACTIVE AGENTS” (priority 2009, published 2011).

Experiments:
rats [1] = assay: Collagen induced arthritis; type: in vivo, rat; conditions: collagen induced study; BN compounds 100 mg/kg, Indomethacin 2.5 mg/kg
Text: Group I—Normal Control; Group II—Arthritic control; Group III—Arthritic rats administered with Synthetic compound BN-4; Group IV—arthritic rats administered with compound BN-14; Group V—arthritic rats administered with BN-16; Group VI—arthritic rats administered with standard drug indomethacin. […] The test and indomethacin doses continued up to 21 days in FCA induced model and 24 days in collagen induced model. […] Before sacrificing the animals, blood was collected and used for estimation of total leukocyte count, TNF-α and IL-1β. […] In collagen induced study the total WBC count was analyzed by using cell counter and count as follows; […]

Wistar rats = assay: Dextran induced rat paw edema model; type: in vivo; conditions: 3 hrs after Dextran
Experimental: Anti-inflammatory activity of test compounds was evaluated in Wistar rats employing method of Winter et al (1963) and Diwan et al (1989). Over night fasted rats were grouped into different test groups and standard group consisting 6 animals in each group. Test compounds were administered orally one hour before dextran challenge as gum acacia suspension. Animals in the standard group received Indomethacin at dose of 10 mg/kg. After one hour dextran was injected into the right hind paw by sub plantar route. A zero hour paw volume was measured for the rats using digital plethysmometer (Ugo Basile, Italy) before the administration of Dextran for all groups. Paw volumes were again measured 3 hrs after the challenge of Dextran. The percent inhibition of paw volume for each rat in treated groups was calculated by comparing with mean paw volume of control group and expressed as mean (±SE) percent inhibition of paw volume for each test group.

IL-1β = IL-1β in paw tissue and serum, collagen induced arthritis; type: in vivo, rat; conditions: for Inhibition of IL-1β in paw tissues: collagen induced study, day 24, 100 mg/kg/day; for Reduction of IL-1β levels in serum: collagen study, vs arthritic control
Text: It is believed that these proinflammatory cytokines help to propagate a local or systemic inflammatory process, and to induce biosynthesis and secretion of metalloproteinases (MMPs) and osteoclasts that critically contribute to degradation of extracellular matrix and erosion of bone respectively (Burger et al., 1998; Gravallese and Goldring, 2000; Smolen and Steiner, 2003).
On termination day blood samples were collected and serum was used for the estimation of Both TNF-α and IL-1β levels in FCA and Collagen induced studies. Both the parameters were determined using ELISA kits.

[2] = Acute oral toxicity, main study in mice; conditions: both sexes, mouse, in vivo, single oral dose, read-out: Maximum tolerated dose
Experimental: In the preliminary sighting study, the effect of various dosed administered to single animals of each sex was investigated in a sequential manner. The sighting study generally yields information on the dose-toxicity relationship including an estimate of the minimum lethal dose. In the main study, the test article is administered to groups of 5 males and 5 female animals at one of the fixed doses (5, 50, 500 and 2000 mg/Kg). The dose is derived from the sighting study. It is immediately below that which is expected to result in mortality. If evident toxicity is not seen at the chosen dose level, the substance should be retested at the next higher dose level. If at the initial dose level, animals die, or a severe toxicity reaction requires removal of animals from the study for animal welfare reasons, the substance is retested at the next lower dose level. Consideration of data from the both sighting study and the main study enabled a judgment to be made on determination of maximum tolerated dose.
At least 10 animals (5 males and 5 females) for each species were used for dose level in this study. Animals were fasted overnight and test articles were administered as 1% gum acacia suspension orally. The dose used in this study is selected from one of four levels 5 mg/kg, 50 mg/kg, 500 mg/kg and 2000 mg/kg i.e. the dose that produced evident toxicity but not mortality in sighting study. […] Different biochemical and hematology parameters observed on “0’ day and on termination day .During main study physical parameters like feed consumption and body weight increase were also recorded. 5 males and females were taken, and toxicity study conducted for the compounds. […] Hematology and biochemical parameters were well and within normal range when compared with 0 day in rats and mice. Based on above observations synthetic compounds were safe upto 2000 mg/kg.

rats [3] = assay: Ulcerogenic assay; type: in vivo, rat; conditions: BN compounds 200 mg/kg oral, Indomethacin 30 mg/kg; for Ulcer Score: arbitrary scale 0 (no lesions) to 4 (mucosa full of lesions); for Ulcer Incidence: fasted rats, six hours after dosing, n=4
Experimental: The method of Cashin et al., (1979) was employed. Food was withheld from the animals for 18 hours prior to the experiment. The fasted animals (n=4) received the compounds BN-4, BN-14 and BN-16 as gum acacia suspension by oral route at the dose of 100,200 mg/kg. Indomethacin control animals received the drug at the dose of 30 mg/kg. Six hours later, rats were killed and the stomachs removed and open along the lesser curvature. The opened stomach was washed with normal saline and observed for ulceration. Lesions on the mucosal surface was scored according to arbitrary scale: 0 No lesion; 0.5=hyperemia; 1=one or two lesions; 2=severe lesions; 3=very severe lesions; 4=Mucosal full of lesions (Bani et al., 2000). […] But indomethacin group animals show severe ulceration in stomach portion. More importantly, gastric ulcer, which is a common side effect of NSAIDS, was totally absent in stomach of compound treated rat group. Since enhanced leukotrine production plays a role in development of gastrointestinal damage from cyclooxygenase inhibition by NSAIDS (Rainsford et al., 1993; Gyomber et al., 1996) and all the compounds have shown potent inhibitory action on 5-LOX inhibition (Arachidonic induced paw edema model) along with cox inhibition (Carrageenan induced paw edema model), the gastric ulcer sparing effect of compounds may be partly due to their effect on 5-LOX inhibition.

SMILES | Total WBC count (rats [1]) | % Inhibition (Wistar rats; 50 mg/kg oral) [%] | Percentage Swelling (50 mg/kg) (Wistar rats; 50 mg/kg oral) | % Inhibition (Wistar rats; 100 mg/kg oral) [%] | Percentage Swelling (100 mg/kg) (Wistar rats; 100 mg/kg oral) [%] | % Inhibition (Wistar rats; 200 mg/kg oral) [%] | Percentage Swelling (200 mg/kg) (Wistar rats; 200 mg/kg oral) [%] | Inhibition of IL-1β in paw tissues (IL-1β) | Reduction of IL-1β levels in serum (IL-1β) | MTD at 14 days [2] [mg/kg] | Ulcer Score (rats [3]) | Ulcer Incidence (rats [3])
Cc1sc2nc3c(c(N)c2c1C)CCCCC3 [BN-4, 2,3-dimethyl-6,7,8,9-tetrahydro-5H-cyclohepta[b]thieno[3,2-e]pyridin-4-amine] | 13.57±0.63 | 12.17 ± 1.14 | 69.96 ± 4.06 % | 13.57 ± 1.71 | 50.01 ± 1.09 | 32.71 ± 4.45 | 38.52 ± 2.60 | more significant inhibition (p<0.01) | more significantly (p<0.01) reduced | > 2000 | – | –
Nc1c2c(nc3sc4c(c13)CCC4)CCCC2 [BN-14, 2,3,6,7,8,9-Hexahydro-1H-cyclopenta[4,5]thieno[2,3-b]quinolin-10-amine] | 14.88±2.64 | 21.29 ± 4.69 | 65.36 ± 2.91a % | 24.83 ± 0.47 | 41.63 ± 2.78 | 38.54 ± 4.26 | 36.09 ± 2.79 | more significant inhibition (p<0.01) | moderate inhibition (p<0.05) | 1250 | 0.37 ± 0.10 | ¼
Nc1c2c(nc3sc4c(c13)CCC4)CCCCC2 [BN-16, 1,2,3,6,7,8,9,10-Octahydrocyclohepta[b]cyclopenta[4,5]thieno[3,2-e]pyridine-11-amine] | 15.70±1.28 | 18.30 ± 3.25 | 61.80 ± 1.18a % | 30.90 ± 4.32 | 40.09 ± 4.24 | 41.00 ± 3.86 | 31.85 ± 2.09 | moderate inhibition (p<0.05) | more significantly (p<0.01) reduced | > 2000 | 0.25 ± 0.12 | 0/4
COc1ccc2c(c1)c(CC(=O)O)c(C)n2C(=O)c1ccc(Cl)cc1 [Indomethacin, reference compound] | 19.70±2.23 | – | – | – | – | – | – | moderate inhibition (p<0.05) | moderate inhibition (p<0.05) | – | 2.25 ± 0.41 | 4/4
